Reference: ChEMBL document CHEMBL1144281, “Inhibitors of type I MetAPs containing pyridine-2-carboxylic acid thiazol-2-ylamide. Part 2: SAR studies on the pyridine ring 3-substituent” (Bioorg Med Chem Lett, 2005)

Experiments:
[1] = Inhibitory concentration against Methionine aminopeptidase-1 (EcMetAP1); set-up: species or system Escherichia coli
[2] = Inhibitory concentration against Methionine aminopeptidase-1 (ScMetAP1); set-up: species or system Saccharomyces cerevisiae

SMILES | IC50 [1] [µM] | IC50 [2] [µM]
O=C(CN1CCOCC1)Nc1cccnc1C(=O)Nc1nccs1 | 0.059 | 0.51
O=C(CN1CCCCC1)Nc1cccnc1C(=O)Nc1nccs1 | 0.053 | 0.19
C=CC(=O)Nc1cccnc1C(=O)Nc1nccs1 | > 100 | 0.62
O=C(CN1CCCC1)Nc1cccnc1C(=O)Nc1nccs1 | 0.09 | 0.15
O=C(CC1CCCC1)Nc1cccnc1C(=O)Nc1nccs1 | 0.79 | 6.72
CC1(C)OC1CC(=O)Nc1cccnc1C(=O)Nc1nccs1 (centres undefined) | 0.7 | 3.37
O=C(CN(O)c1ccccc1)Nc1cccnc1C(=O)Nc1nccs1 | 0.057 | 0.23
CC(C)(C)OC(=O)NCC(=O)Nc1cccnc1C(=O)Nc1nccs1 | 0.049 | 0.38
C=CCCC(=O)Nc1cccnc1C(=O)Nc1nccs1 | 0.51 | 12.2
O=C(O)CCC(=O)Nc1cccnc1C(=O)Nc1nccs1 | 0.14 | 2.27
O=C(Nc1cccnc1C(=O)Nc1nccs1)c1cccnc1 | 0.06 | 0.33
CN(C)CC(=O)Nc1cccnc1C(=O)Nc1nccs1 | 0.12 | 0.42
CCOC(=O)C(=O)Nc1cccnc1C(=O)Nc1nccs1 | 0.05 | 0.77
O=C(Nc1nccs1)c1ncccc1NC(=O)C1CCC1 | > 100 | > 100
O=C(Nc1nccs1)c1ncccc1NC(=O)C1CCCC1 | 0.35 | 2.58
O=C(O)CC(=O)Nc1cccnc1C(=O)Nc1nccs1 | 0.14 | 1.52
O=C(Nc1nccs1)c1ncccc1NC(=O)C1CC1 | 0.13 | 2.56
O=C(Nc1nccs1)c1ncccc1NC(=O)C1CC=CCC1 (centres undefined) | 0.81 | 15.1
O=C(CC1=CCCC1)Nc1cccnc1C(=O)Nc1nccs1 | 0.19 | 5.07

SMILES | IC50 [1] [µM] | IC50 [2] [µM]
CC(C)=CC(=O)Nc1cccnc1C(=O)Nc1nccs1 | 0.22 | 0.77
CC(C)=CCC(=O)Nc1cccnc1C(=O)Nc1nccs1 | 0.24 | 0.14
O=C(O)c1ccccc1C(=O)Nc1cccnc1C(=O)Nc1nccs1 | 0.33 | 2.27
O=C(Nc1cccnc1C(=O)Nc1nccs1)C1=CCCCC1 | 0.97 | 21.9
O=C(CC1=CCCCC1)Nc1cccnc1C(=O)Nc1nccs1 | 0.12 | 8.91
O=C(O)C(=O)Nc1cccnc1C(=O)Nc1nccs1 | 0.62 | > 100
C/C=C/C(=O)Nc1cccnc1C(=O)Nc1nccs1 | > 100 | 0.82
CCOC(=O)CC(=O)Nc1cccnc1C(=O)Nc1nccs1 | 0.075 | 0.72
CC1(C)OC1CCC(=O)Nc1cccnc1C(=O)Nc1nccs1 (centres undefined) | 0.56 | 3.3
O=C(Nc1cccnc1C(=O)Nc1nccs1)C1=CCCC1 | 0.36 | 5.17
CCN(CC)CC(=O)Nc1cccnc1C(=O)Nc1nccs1 | 0.049 | 0.23
CC(C)(C)OC(=O)NCCC(=O)Nc1cccnc1C(=O)Nc1nccs1 | 0.049 | 0.15
NCC(=O)Nc1cccnc1C(=O)Nc1nccs1 | 0.092 | 0.21
NCCC(=O)Nc1cccnc1C(=O)Nc1nccs1 | 0.074 | 0.13
CC(C)=CCCC(=O)Nc1cccnc1C(=O)Nc1nccs1 | 0.61 | 0.31
O=C(Nc1nccs1)c1ccccn1 | 5 | 7
C=CCC(=O)Nc1cccnc1C(=O)Nc1nccs1 | 0.13 | 0.38
C=C(C)CC(=O)Nc1cccnc1C(=O)Nc1nccs1 | 0.15 | 4.67
